In the assay the target is A2 Adenosine receptor (Rattus norvegicus, UniProt P30543). Description: biochemical. On the procedure:
The membrane preparation is obtained as follows: Frozen pellets of PC12 cells are washed twice with ice cold, buffered, physiological saline and the cells recovered by centrifugation (1500 G) at 3° C. The separated cells are then suspended in hypotonic solution (distilled water), allowed to stand on ice for 30 minutes and are then carefully homogenized using a standard high-speed homogeniser with periodic ice-cooling to obtain a fine suspension. […] The mixture is then incubated at 37° C. After 20 minutes, the reaction is terminated by dilution with ice-cold buffer and transfer onto ice. The material obtained containing the cell membranes is recovered by centrifugation and washed by resuspension in buffer and recentrifugation. The pellet produced is then resuspended in ice-cold buffer using a hand-driven homogenizer. The resultant membrane suspension is frozen and stored under liquid nitrogen until required.
After incubation, the samples are rapidly filtered over glass-fibre mats and the filter mats are washed to remove non-receptor-bound radioligand. Receptor-bound radioligand entrapped on the filter mats is then determined by liquid scintillation counting. […] The specific binding (defined as the difference between the total binding and the non-specific binding) in the presence of the particular test compound is determined and compared with the control value.

The record followed here is patent US5326869A (priority 1991, dated 1994).

Each structure is given as a SMILES string.

Sequence of A2 Adenosine receptor (P30543 whole entry): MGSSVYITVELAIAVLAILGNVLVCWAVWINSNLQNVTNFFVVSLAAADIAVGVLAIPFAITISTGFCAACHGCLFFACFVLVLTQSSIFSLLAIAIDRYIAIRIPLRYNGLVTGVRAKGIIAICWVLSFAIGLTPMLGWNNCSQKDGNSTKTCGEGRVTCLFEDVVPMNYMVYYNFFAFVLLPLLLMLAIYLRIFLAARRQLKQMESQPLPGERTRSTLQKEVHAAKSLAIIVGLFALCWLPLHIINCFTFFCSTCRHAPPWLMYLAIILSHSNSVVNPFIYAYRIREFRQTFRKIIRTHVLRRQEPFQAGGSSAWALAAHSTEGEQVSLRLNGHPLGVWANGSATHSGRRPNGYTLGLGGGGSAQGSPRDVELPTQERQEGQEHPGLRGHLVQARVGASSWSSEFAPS

As usually defined, the IC50 is the concentration needed to halve the response being measured. The low end stands for greater potency, the high end for weaker potency. `Nc1nc(Oc2ccccc2)nc2nc(-c3ccco3)nn12` [Example 2, 7-amino-2-(2-furyl)-5-phenoxy[1,2,4]triazolo[1,5-a][1,3,5]triazine] had an IC50 of approximately 10 nM.
